Source: the NIST ThermoML archive (doi:10.1021/je400468z)
Several values for one entry are separate records, joined by “and”; a condition that tells them apart may be missing. Identical values can stand only once. Numbers after ± are expanded uncertainties.

Test: relative permittivity at various frequencies (dimensionless)
Details: Liquid, Frequency=0.001 MHz, Coaxial cylinder capacitor

## CCCCCCC [heptane]
303.56 K, 320.13 kPa
  relative permittivity: 1.90973 ± 0.00074
303.56 K, 1121.5 kPa
  relative permittivity: 1.91097 ± 0.00073
303.56 K, 5049.5 kPa
  relative permittivity: 1.9172 ± 0.00073
303.56 K, 10111 kPa
  relative permittivity: 1.92498 ± 0.00073
303.56 K, 20218 kPa
  relative permittivity: 1.93899 ± 0.00074
303.56 K, 20219 kPa
  relative permittivity: 1.93899 ± 0.00074
303.56 K, 30315 kPa
  relative permittivity: 1.95162 ± 0.00073
303.56 K, 30317 kPa
  relative permittivity: 1.95171 ± 0.00073
303.56 K, 40408 kPa
  relative permittivity: 1.96324 ± 0.00073
303.56 K, 50515 kPa
  relative permittivity: 1.97403 ± 0.00075
303.56 K, 60608 kPa
  relative permittivity: 1.98391 ± 0.00075
333.15 K, 327.25 kPa
  relative permittivity: 1.86971 ± 0.00075
333.15 K, 1134.1 kPa
  relative permittivity: 1.87125 ± 0.00074
333.15 K, 5058.1 kPa
  relative permittivity: 1.87892 ± 0.00074
333.15 K, 5509 kPa
  relative permittivity: 1.87899 ± 0.00074
333.15 K, 10118 kPa
  relative permittivity: 1.88834 ± 0.00073
333.15 K, 10122 kPa
  relative permittivity: 1.88832 ± 0.00073
333.15 K, 20230 kPa
  relative permittivity: 1.90484 ± 0.00074
333.15 K, 20232 kPa
  relative permittivity: 1.90482 ± 0.00074
333.15 K, 30327 kPa
  relative permittivity: 1.91942 ± 0.00074
333.15 K, 30328 kPa
  relative permittivity: 1.91944 ± 0.00074
333.15 K, 40419 kPa
  relative permittivity: 1.93256 ± 0.00073
333.15 K, 50511 kPa
  relative permittivity: 1.9444 ± 0.00073
333.15 K, 60625 kPa
  relative permittivity: 1.95543 ± 0.00075
363.01 K, 328.75 kPa
  relative permittivity: 1.82615 ± 0.00073
363.01 K, 1138 kPa
  relative permittivity: 1.82815 ± 0.00073
363.01 K, 5057.6 kPa
  relative permittivity: 1.83786 ± 0.00072
363.01 K, 5062.5 kPa
  relative permittivity: 1.83787 ± 0.00072
363.01 K, 10125 kPa
  relative permittivity: 1.84924 ± 0.00074
363.01 K, 20232 kPa
  relative permittivity: 1.86884 ± 0.00073 and 1.86885 ± 0.00073
363.01 K, 30330 kPa
  relative permittivity: 1.8855 ± 0.00072
363.01 K, 30332 kPa
  relative permittivity: 1.88575 ± 0.00072
363.01 K, 40413 kPa
  relative permittivity: 1.90054 ± 0.00074
363.01 K, 50513 kPa
  relative permittivity: 1.9141 ± 0.00073
363.01 K, 60612 kPa
  relative permittivity: 1.9264 ± 0.00073
363.01 K, 60613 kPa
  relative permittivity: 1.92636 ± 0.00073
